The values that follow come from patent publication US8106046B2, “Cyclopentathiophene modulators of the glucocorticoid receptor, AP-1, and/or NF-κB activity and use thereof” (Bristol-Myers Squibb Company, priority 2008, dated 2012).

Read-outs that look alike come from different tables or passages of the source.

For assay [1], the system named is AP-1 induced transcriptional activity. In words: Cellular Transrepressional Assay (AP-1 luciferase reporter in A549 cells, PMA activated). The format is cell-based. The settings on record: 10 ng/ml PMA, 7 hours; for AP-1 Max % inh (Cellular Transrepression Assay): maximum inhibition; for EC50: read-out: AP-1 EC50, nM (Cellular Transrepression Assay). The protocol: To measure the ability of test molecules to inhibit AP-1 induced transcriptional activity we utilized an A549 cell which was stably transfected with a plasmid containing 7×AP-1 DNA binding sites (pAP-1-Luc plasmid, Stratagene Co. La Jolla, Calif.) followed by the gene for luciferase. Cells were activated with 10 ng/ml of phorbol myristic acid (PMA) plus or minus test molecules for 7 hours. After 7 hours a luciferase reagent was added to measure luciferase enzymatic activity in the cell. After a 10 minute incubation of luciferase reagent with cells, luminescence was measured in a TopCount luminescence counter. Repression of AP-1 activity was calculated as the percentage decrease in the signal induced by PMA alone. Test molecules were analyzed in the concentration range from 0.1 nM to 40 μM. EC50s were determined by using standard curve fitting methods such as Excel fit (Microsoft Co.). An EC50 is the test molecule concentration at which there is a 50% repression of the maximal inhibition of transcription, i.e., a 50% reduction of AP-1 activity.

Assay [2] addresses T1, human glucocorticoid receptor (Homo sapiens, UniProt P04150).
T1 construct: purified human recombinant full-length glucocorticoid receptor (2 nM); purchased Invitrogen Part #2893
T1 sequence (P04150 1-777): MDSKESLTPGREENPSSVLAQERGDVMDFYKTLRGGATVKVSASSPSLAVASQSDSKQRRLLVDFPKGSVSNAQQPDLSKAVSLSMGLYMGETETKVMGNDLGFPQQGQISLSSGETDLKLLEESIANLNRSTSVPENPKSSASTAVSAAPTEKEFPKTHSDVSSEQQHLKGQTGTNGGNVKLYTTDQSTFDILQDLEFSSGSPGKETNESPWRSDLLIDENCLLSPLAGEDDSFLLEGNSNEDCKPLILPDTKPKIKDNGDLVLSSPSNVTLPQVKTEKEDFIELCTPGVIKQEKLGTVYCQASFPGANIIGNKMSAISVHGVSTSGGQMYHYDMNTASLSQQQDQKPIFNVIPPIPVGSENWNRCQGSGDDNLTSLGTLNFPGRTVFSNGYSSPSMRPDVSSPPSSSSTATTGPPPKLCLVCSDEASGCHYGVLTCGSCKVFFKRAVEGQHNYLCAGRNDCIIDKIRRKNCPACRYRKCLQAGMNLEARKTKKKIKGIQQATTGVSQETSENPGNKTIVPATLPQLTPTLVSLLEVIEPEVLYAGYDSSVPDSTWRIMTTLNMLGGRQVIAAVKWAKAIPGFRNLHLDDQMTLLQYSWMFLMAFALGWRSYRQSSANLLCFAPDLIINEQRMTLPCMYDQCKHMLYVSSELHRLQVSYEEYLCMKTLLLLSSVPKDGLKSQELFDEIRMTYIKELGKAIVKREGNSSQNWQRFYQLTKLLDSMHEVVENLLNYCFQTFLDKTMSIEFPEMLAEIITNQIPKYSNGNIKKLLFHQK
In words: Glucocorticoid Receptor Binding Assay (I), fluorescence polarization competitor assay. The note with it: purified human recombinant full-length GR, Fluormone GS Red. The protocol: In order to assess the affinity of test compounds for the human glucocorticoid receptor, a commercially available kit was used (Glucocorticoid Receptor Competitor Assay Kit, Invitrogen Part #2893). Briefly, purified human recombinant full-length glucocorticoid receptor (2 nM) was mixed with fluorescently labeled glucocorticoid (1 nM Fluormone GS Red) in the presence or absence of test compound. After two hour incubation at room temperature in the dark, the fluorescence polarization (FP) of the samples was measured. The FP of a mixture of receptor, fluorescent probe (i.e., Fluormone GS Red) and 5 μM dexamethasone represented background fluorescence or 100% inhibition, whereas, the FP of the mixture without dexamethasone (but in the presence of vehicle) was taken to be 100% binding. […] Test compounds were analyzed in the concentration range from 8.5E-05 μM to 5 μM.

As to `CN(C)C(=O)c1ccc(-c2cc3c(s2)C[C@](C)(C(=O)Nc2nncs2)[C@@H]3c2ccccc2)cc1` (racemic) [Example 5], in assay [1], the “AP-1 Max % inh (Cellular Transrepression Assay)” value (“AP-1 Max % inh” below) amounted to 43.98% and the EC50 is 14 nM. Take `CCN(C)C(=O)c1ccc(-c2cc3c(s2)CC(C)(C(=O)Nc2nncs2)C3c2ccccc2)cc1Cl` (racemic) [Example 11]: the Ki in assay [2] amounted to 1.9 nM.

In the case of `CN(C)C(=O)c1ccc(-c2cc3c(s2)C[C@](C)(C(=O)Nc2nncs2)[C@@H]3c2ccccc2)cc1Cl` (racemic) [Example 6], in assay [1], the “AP-1 Max % inh” value amounted to 29.32% and the EC50 was found to be 53.1 nM. For the compound `CCN(C)C(=O)c1ccc(-c2cc3c(s2)C[C@](C)(C(=O)Nc2nncs2)[C@@H]3c2ccccc2)cc1` (racemic) [Example 4], in assay [1], the “AP-1 Max % inh” value turned out to be 52.82%. Moreover, the half-maximal effective concentration (EC50) in assay [1] (Homo sapiens) stood at 35 nM. Turning to `CN(C)C(=O)c1ccc(-c2cc3c(s2)C[C@@](C)(C(=O)Nc2nncs2)[C@H]3c2ccccc2)cc1` [Example 19], in assay [1], the “AP-1 Max % inh” value is given as 38.78% and the concentration giving a half-maximal response (EC50) worked out at 21.8 nM. The matching figures for `CCN(C)C(=O)c1ccc(-c2cc3c(s2)C[C@](C)(C(=O)Nc2nncs2)[C@@H]3c2ccccc2)cc1` [Example 15]: 53.20% and 18.8 nM.

Turning to `CCN(C)C(=O)c1ccc(-c2cc3c(s2)C[C@](C)(C(=O)Nc2nncs2)[C@@H]3c2ccccc2)cc1F` (racemic) [Example 10], in assay [1], the “AP-1 Max % inh” value is reported as 27.94% and the EC50 was 24.2 nM. With `CN(C)C(=O)c1ccc(-c2cc3c(s2)C[C@](C)(C(=O)Nc2nncs2)[C@@H]3c2ccccc2)cc1Cl` [Example 14], in assay [1], the “AP-1 Max % inh” value is reported as 42.02% and the EC50 turned out to be 63.7 nM. As for `C[C@]1(C(=O)Nc2nncs2)Cc2sc(-c3ccc(C(=O)N4CCOCC4)cc3)cc2[C@H]1c1cccc(F)c1` (relative stereo) [Example 24, (Cis)-4-(3-fluorophenyl)-5-methyl-2-(4-(morpholine-4-carbonyl)phenyl)-N-(1,3,4-thiadiazol-2-yl)-5,6-dihydro-4H-cyclopenta[b]thiophene-5-carboxamide], the “AP-1 Max % inh” value in assay [1] stood at 37.80%. In addition, the EC50 in assay [1] (Homo sapiens) is 23.1 nM. For `C[C@]1(C(=O)Nc2nncs2)Cc2sc(Br)cc2[C@H]1c1ccccc1` [Example 2, (4S,5S)-2-Bromo-5-methyl-4-phenyl-N-(1,3,4-thiadiazol-2-yl)-5,6-dihydro-4H-cyclopenta[b]thiophene-5-carboxamide], the Ki in assay [2] came to 5.34 nM. `C[C@]1(C(=O)Nc2nnc(C(=O)NC3CC3)s2)Cc2sc(-c3ccc(C(=O)N4CCOCC4)cc3)cc2[C@H]1c1ccccc1` [Example 21]: in assay [1], the “AP-1 Max % inh” value turned out to be 60.04%. In addition, the half-maximal effective concentration (EC50) in assay [1] (Homo sapiens) came out at 22.8 nM. Consider `CC(C)NC(=O)c1nnc(NC(=O)C2(C)Cc3sc(-c4ccc(C(=O)N5CCOCC5)cc4)cc3C2c2ccccc2)s1` (racemic) [Example 22], for which, in assay [1], the “AP-1 Max % inh” value is 55.76% and the EC50 was 34.5 nM.

Consider `C[C@]1(C(=O)Nc2nncs2)Cc2sc(-c3ccc(C(=O)N4CCOCC4)cc3)cc2[C@H]1c1ccccc1` [Example 13], for which, in assay [1], the “AP-1 Max % inh” value came out at 50.68% and the concentration for a half-maximal effect (EC50) came to 23.9 nM.

For `C[C@@]1(C(=O)Nc2nncs2)Cc2sc(-c3ccc(C(=O)N4CCOCC4)cc3)cc2[C@@H]1c1ccccc1` [Example 18], in assay [1], the “AP-1 Max % inh” value is recorded as 29.81% and the EC50 was found to be 27.3 nM. The matching figures for `C[C@]1(C(=O)Nc2nncs2)Cc2sc(-c3ccc(C(=O)N4CCCC4)cc3)cc2[C@H]1c1ccccc1` (racemic) [Example 8]: 42.74% and 42.1 nM.

Turning to `C[C@@]1(C(=O)Nc2nncs2)Cc2sc(Br)cc2[C@@H]1c1ccccc1` [Example 3, (4R,5R)-2-Bromo-5-methyl-4-phenyl-N-(1,3,4-thiadiazol-2-yl)-5,6-dihydro-4H-cyclopenta[b]thiophene-5-carboxamide], the Ki in assay [2] was 1.8 nM. Consider `CN(C)C(=O)c1ccc(-c2cc3c(s2)C[C@](C)(C(=O)Nc2nncs2)[C@@H]3c2ccccc2)cc1F` (racemic) [Example 9], for which, in assay [1], the “AP-1 Max % inh” value was found to be 26.03% and the concentration for a half-maximal effect (EC50) was 40.2 nM.

Take `Cc1nnc(NC(=O)C2(C)Cc3sc(-c4ccc(C(=O)N5CCOCC5)cc4)cc3C2c2ccccc2)s1` (racemic) [Example 23]: in assay [1], the “AP-1 Max % inh” value was found to be 29.00% and the EC50 amounted to 452 nM. Consider `C[C@]1(C(=O)Nc2nncs2)Cc2sc(-c3ccc(C(=O)N4CCOCC4)cc3)cc2[C@H]1c1ccccc1` (racemic) [Example 7], for which, in assay [1], the “AP-1 Max % inh” value was 44.81% and the EC50 was 22.5 nM. The matching figures for `C[C@]1(C(=O)Nc2nncs2)Cc2sc(-c3ccc(C(=O)N4CCCC4)cc3)cc2[C@H]1c1ccccc1` [Example 16]: 56.78% and 290 nM. For the compound `CN(C)C(=O)c1ccc(-c2cc3c(s2)C[C@](C)(C(=O)Nc2nncs2)[C@@H]3c2ccccc2)cc1` [Example 12], in assay [1], the “AP-1 Max % inh” value was 43.11% and the EC50 was determined as 29.1 nM. As to `CC1(C(=O)Nc2nncs2)Cc2sc(Br)cc2C1c1ccccc1` (racemic) [Example 1, (+/−)-2-Bromo-5-methyl-4-phenyl-N-(1,3,4-thiadiazol-2-yl)-5,6-dihydro-4H-cyclopenta[b]thiophene-5-carboxamide], in assay [2], the Ki was determined as 5.3 nM.
